{
  "source": "paper PMC11465619",
  "about": "(ACS Omega, 2024)",
  "key": {"[1]": {"target": "T1, electric eel acetylcholinesterase (AChE, Type–VI-S, EC 3.1.1.7) (Electrophorus electricus, UniProt O42275)", "T1 construct": "purchased Type–VI-S", "T1 sequence (O42275 24-633)": "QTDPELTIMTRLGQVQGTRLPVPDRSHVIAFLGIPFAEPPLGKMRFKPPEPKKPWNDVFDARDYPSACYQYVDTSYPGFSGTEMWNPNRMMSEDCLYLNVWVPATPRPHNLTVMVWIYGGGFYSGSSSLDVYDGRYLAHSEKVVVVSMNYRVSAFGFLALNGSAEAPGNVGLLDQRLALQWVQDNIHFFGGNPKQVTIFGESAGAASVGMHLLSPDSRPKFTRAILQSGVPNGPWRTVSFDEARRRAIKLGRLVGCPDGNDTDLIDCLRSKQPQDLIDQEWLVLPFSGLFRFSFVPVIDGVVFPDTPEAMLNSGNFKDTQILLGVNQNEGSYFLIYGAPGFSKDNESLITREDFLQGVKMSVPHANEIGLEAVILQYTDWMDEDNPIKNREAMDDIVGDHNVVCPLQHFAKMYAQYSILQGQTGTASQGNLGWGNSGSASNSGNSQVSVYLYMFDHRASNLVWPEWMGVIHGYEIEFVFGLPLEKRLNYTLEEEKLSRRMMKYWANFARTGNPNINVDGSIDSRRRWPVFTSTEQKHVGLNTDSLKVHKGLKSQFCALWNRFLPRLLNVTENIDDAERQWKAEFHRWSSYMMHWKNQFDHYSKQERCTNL", "experiment": "biochemical", "conditions": "for IC50: mean ± SEM of three parallel measurements", "description": "(§1) The electric eel acetylcholinesterase (AChE, Type–VI-S, EC 3.1.1.7, 425.84 U/mg) and horse reddish butyrylcholinesterase (BChE, EC 3.1.1.8, 11.4 U/mg) were used to determine the anticholinesterase activity. […] After incubation for 15 min at 25 °C, 20 μL 0.5 mM DTNB (5,50-dithiobis(2-nitrobenzoic acid)) and 20 μL acetylthiocholine iodide (0.71 mM) or butyryl-thiocholine chloride (0.2 mM) were added. Then, the absorbance was measured at 412 nm.\n(§2) Lineweaver–Burk plots were drawn from the data obtained as a result of the experimental study.[24]"}, "[2]": {"target": "horse reddish butyrylcholinesterase (BChE, EC 3.1.1.8) (Equus caballus, UniProt P81908)", "sequence (P81908 whole entry)": "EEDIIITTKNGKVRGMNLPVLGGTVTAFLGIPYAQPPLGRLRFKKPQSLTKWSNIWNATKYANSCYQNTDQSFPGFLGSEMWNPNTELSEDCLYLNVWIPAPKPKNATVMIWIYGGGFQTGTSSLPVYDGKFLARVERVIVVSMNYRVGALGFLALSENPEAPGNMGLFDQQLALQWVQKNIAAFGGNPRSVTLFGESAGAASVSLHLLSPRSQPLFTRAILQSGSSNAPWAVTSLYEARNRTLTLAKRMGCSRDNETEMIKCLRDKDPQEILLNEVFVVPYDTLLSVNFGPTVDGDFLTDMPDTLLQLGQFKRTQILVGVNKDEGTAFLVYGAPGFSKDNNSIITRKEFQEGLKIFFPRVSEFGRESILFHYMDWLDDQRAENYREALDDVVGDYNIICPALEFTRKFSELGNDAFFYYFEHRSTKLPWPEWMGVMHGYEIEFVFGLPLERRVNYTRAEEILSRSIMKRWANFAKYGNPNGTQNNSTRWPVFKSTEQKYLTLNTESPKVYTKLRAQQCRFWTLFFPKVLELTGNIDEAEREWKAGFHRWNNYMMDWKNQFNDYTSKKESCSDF", "experiment": "biochemical", "conditions": "for IC50: mean ± SEM of three parallel measurements", "description": "as §1, §2"}},
  "data": [
    {"molecule": "O=S(=O)(N/N=C/c1ccccc1O)c1ccc(OC(F)(F)F)cc1", "note": "[Compound 7, (E)-N′-(2-Hydroxybenzylidene)-4-(trifluoromethoxy)benzenesulfonohydrazide]", "values": [
      {"measurement": "type of inhibition of AChE (Lineweaver–Burk plots)", "setting": "[1]", "value": "competitively"},
      {"measurement": "AChE inhibitory activity relative to the standard galantamine", "setting": "[1]; compared with galantamine", "value": "seven times lower"},
      {"measurement": "Ki", "setting": "[1]; competitive inhibition, read-out: inhibition constant for AChE (Lineweaver–Burk plots)", "value": "28.2 ± 2.51", "unit": "µM"},
      {"measurement": "IC50", "setting": "[1]", "value": "29.1 ± 0.94", "unit": "µM"},
      {"measurement": "type of inhibition of BChE (Lineweaver–Burk plots)", "setting": "[2]", "value": "competitively"},
      {"measurement": "Ki", "setting": "[2]; competitive inhibition, read-out: inhibition constant for BChE (Lineweaver–Burk plots)", "value": "41.7 ± 3.18", "unit": "µM"},
      {"measurement": "IC50", "setting": "[2]", "value": "40.3 ± 0.66", "unit": "µM"}
    ]},
    {"molecule": "O=S(=O)(N/N=C/c1ccccc1O)c1ccc(C(F)(F)F)cc1", "note": "[Compound 4, (E)-N′-(2-Hydroxybenzylidene)-4-(trifluoromethyl)benzenesulfonohydrazide]", "values": [
      {"measurement": "IC50", "setting": "[1]", "value": "68.67 ± 0.43", "unit": "µM"},
      {"measurement": "IC50", "setting": "[2]", "value": "75.34 ± 0.18", "unit": "µM"}
    ]},
    {"molecule": "O=S(=O)(N/N=C/c1ccccc1O)c1ccccc1C(F)(F)F", "note": "[Compound 2, (E)-N′-(2-Hydroxybenzylidene)-2-(trifluoromethyl)benzenesulfonohydrazide]", "values": [
      {"measurement": "IC50", "setting": "[1]", "value": "91.77 ± 0.33", "unit": "µM"},
      {"measurement": "IC50", "setting": "[2]", "value": "100.1 ± 0.12", "unit": "µM"}
    ]},
    {"molecule": "O=S(=O)(N/N=C/c1ccccc1O)c1ccc(F)cc1", "note": "[Compound 1, (E)-4-Fluoro-N′-(2-hydroxybenzylidene)benzenesulfonohydrazide]", "values": [
      {"measurement": "IC50", "setting": "[1]", "value": "117.5 ± 0.38", "unit": "µM"},
      {"measurement": "IC50", "setting": "[2]", "value": "124.4 ± 0.28", "unit": "µM"}
    ]},
    {"molecule": "O=S(=O)(N/N=C/c1ccccc1O)c1cccc(C(F)(F)F)c1", "note": "[Compound 3, (E)-N′-(2-Hydroxybenzylidene)-3-(trifluoromethyl)benzenesulfonohydrazide]", "values": [
      {"measurement": "IC50", "setting": "[1]", "value": "104.2 ± 0.56", "unit": "µM"},
      {"measurement": "IC50", "setting": "[2]", "value": "119.8 ± 0.17", "unit": "µM"}
    ]},
    {"molecule": "O=S(=O)(N/N=C/c1ccccc1O)c1cccc(OC(F)(F)F)c1", "note": "[Compound 6, (E)-N′-(2-Hydroxybenzylidene)-3-(trifluoromethoxy)benzenesulfonohydrazide]", "values": [
      {"measurement": "IC50", "setting": "[1]", "value": "80.3 ± 0.91", "unit": "µM"},
      {"measurement": "IC50", "setting": "[2]", "value": "86.4 ± 0.14", "unit": "µM"}
    ]},
    {"molecule": "O=S(=O)(N/N=C/c1ccccc1O)c1ccccc1OC(F)(F)F", "note": "[Compound 5, (E)-N′-(2-Hydroxybenzylidene)-2-(trifluoromethoxy)benzenesulfonohydrazide]", "values": [
      {"measurement": "IC50", "setting": "[1]", "value": "53.1 ± 0.58", "unit": "µM"},
      {"measurement": "IC50", "setting": "[2]", "value": "69 ± 1.06", "unit": "µM"}
    ]}
  ]
}
